Consider 13 molecules from patent publication US12296053B2, “Nanomaterials comprising triols” (Beam Therapeutics Inc., priority 2022, dated 2025).

The nature of data set [1]: Encapsulation efficiency of LNP preparations (Ribogreen assay; Qubit, unlysed and lysed LNPs). Type of data set: physicochemical. To be noted: LNP preparation with the ionizable lipid, ABE mRNA:sgRNA 1:1, except 7-1, 7-2, 7-6, 7-10 (unlysed and lysed LNPs, Qubit). How it is done:
(§1) Lipid nanoparticle components were dissolved in 100% ethanol at specified lipid component molar ratios. mRNA encoding an adenine base editor and a chemically-modified sgRNA was dissolved at a mass ratio of 1:1 in 50 mM citrate, pH 4.0, resulting in a concentration of NA cargo of approximately 0.1 mg/mL.
(§2) LNP preparations were formulated with molar ratios of 47.5% Ionizable Lipid: 40% Cholesterol: 2.5% PEG2000-DMG: 10% DSPC total lipid to NA molar ratio of 6 to 12.
(§3) LNP preparations were formed by microfluidic mixing of the lipid and NA solutions using Precision Nanosystems NanoAssemblr Ignite series Instruments, according to the manufacturer's protocol.
With the exception of LNPs comprising ionizable lipids 7-1, 7-2, 7-6, and 7-10, RNA concentration and encapsulation efficiency were determined by Ribogreen assay (BioTek Synergy LX plate reader). For LNPs comprising ionizable lipids 7-1, 7-2, 7-6, and 7-10, RNA concentration was determined by Qubit microRNA kit (for siRNA) or HS RNA kit (for mRNA) per manufacturer's instructions, and encapsulation efficiency was determined by measuring unlysed and lysed LNPs.

Data set [2] in a line: LNP hydrodynamic diameter and polydispersity index by dynamic light scattering (DLS). Type of data set: physicochemical. To be noted: for Diameter (nm): hydrodynamic diameter of the LNP preparation with the ionizable lipid; for PDI: polydispersity index of the LNP preparation with the ionizable lipid. How it is done:
(§4) A 3:1 ratio of aqueous to organic solvent was maintained during mixing using differential flow rates. After mixing, LNP preparations were collected and diluted in TBS (approximately 7:1 v/v), and further buffer exchange was conducted using dialysis in TBS at 4° C. for 8 to 24 hours against a 20 kDa filter. After this initial dialysis, each individual LNP preparation was characterized via dynamic light scattering (DLS) to measure size and polydispersity. pKa of a subpopulation of LNP preparations was measured via TNS assay.
DLS-LNP preparation hydrodynamic diameter and polydispersity index (PDI) was measured using high throughput dynamic light scattering (DLS) (DynaPro plate reader II, Wyatt). LNP preparations were diluted 1×PBS to an appropriate concentration and analyzed.

Data set [3] deals with ALAS1 target site. Put plainly: Base editing in liver by LNP-delivered ABE mRNA and sgRNA, targeted deep sequencing. Type of data set: in vivo. To be noted: LNP with the ionizable lipid, ABE mRNA + sgRNA targeting ALAS1 1:1; tail vein injection, Balb/c mice; 0.05 mg/kg; tissues four to six days post-dose. As for the experimental part: as §1, §2, §3, §4
Male Balb/C mice aged approximately 8-12 weeks were used in the experiments described herein. […]
Age-matched mice were also used to administer vehicle (1×TBS) via tail vein injection as a control. Four to six days post-dose, tissues including liver, spleen, and bone marrow were collected. Base editing was determined by performing targeted deep sequencing analysis at the ALAS1 target site using extracted genomic DNA. Genomic DNA was isolated and fragmented and adapter-ligated using the Nextera DNA Flex Library Prep Kit (Illumina) using the 96-well plate Nextera indexing primers (Illumina), according to the manufacturer's instructions. Library size and concentration was confirmed by Fragment Analyzer (Agilent) and analyzed for whole genome sequencing using an Illumina HiSeq.

On to `CC/C=C\CCCCOC(CCC(=O)OCC(COC(=O)CCCCCC(=O)OCCC(CCCC)CCCC)COC(=O)CCC(CCCCCC)OC(=O)NCCN1CCCC1)OCCCC/C=C\CC` (stereo not shown) [Compound 7-12, 1-(3-((4,4-bis(((Z)-oct-5-en-1-yl)oxy)butanoyl)oxy)-2-(((4-(((2-(pyrrolidin-1-yl)ethyl)carbamoyl)oxy)decanoyl)oxy)methyl)propyl) 7-(3-butylheptyl) heptanedioate], for which, in data set [1], the “Encapsulation Efficiency (%)” value turned out to be 96.4%. Besides, in data set [2], the “Diameter (nm)” value turned out to be 69.26 nm and the PDI came out at 0.11. Further, in data set [3], the “% Editing in Liver (0.05 mpk)” value was found to be 1.7%.
`CC/C=C\CCCCOC(CCC(=O)OCC(COC(=O)CCCCC(=O)OCCC(CCCCCC)CCCCCC)COC(=O)CCC(CCCCCC)OC(=O)NCCN1CCCC1)OCCCC/C=C\CC` (stereo not shown) [Compound 7-16, 3-((4,4-bis(((Z)-oct-5-en-1-yl)oxy)butanoyl)oxy)-2-(((4-(((2-(pyrrolidin-1-yl)ethyl)carbamoyl)oxy)decanoyl)oxy)methyl)propyl (3-hexylnonyl) adipate]: in data set [1], the “Encapsulation Efficiency (%)” value is on record as 98.0%. Also, in data set [2], the “Diameter (nm)” value is 52.55 nm and the PDI was 0.05. In addition, the “% Editing in Liver (0.05 mpk)” value in data set [3] amounted to 0.7%.
For `CC/C=C\CCCCOC(CCC(=O)OCC(COC(=O)CCCCCCOC(=O)C(CCCC)CCCCCC)COC(=O)CCC(CCCCC)OC(=O)NCCN1CCCC1)OCCCC/C=C\CC` (stereo not shown) [Compound 7-23, 3-((4,4-bis(((Z)-oct-5-en-1-yl)oxy)butanoyl)oxy)-2-(((7-((2-butyloctanoyl)oxy)heptanoyl)oxy)methyl)propyl 4-(((2-(pyrrolidin-1-yl)ethyl)carbamoyl)oxy)nonanoate] the same measures were 98.7%, 57.90 nm, 0.12 and 1.0%.
Taken in the same sequence, the figures for `CC/C=C\CCCCOC(CCC(=O)OCC(COC(=O)CCC(CCCCCC)OC(=O)NCCN1CCCC1)COC(=O)CCC(OCCCC/C=C\CC)OCCCC/C=C\CC)OCCCC/C=C\CC` (stereo not shown) [Compound 7-38, 2-(((4-(((2-(pyrrolidin-1-yl)ethyl)carbamoyl)oxy)decanoyl)oxy)methyl)propane-1,3-diyl bis(4,4-bis(((Z)-oct-5-en-1-yl)oxy)butanoate)] were 99.1%, 60.25 nm, 0.06 and 9.4%.
In the case of `C=CCCCCCC(CCCCCC=C)COC(=O)CCCCC(=O)OCC(COC(=O)CCC(CCCCCC)OC(=O)NCCN1CCCC1)COC(=O)CCC(OCCCC/C=C\CC)OCCCC/C=C\CC` (stereo not shown) [Compound 7-39, 3-((4,4-bis(((Z)-oct-5-en-1-yl)oxy)butanoyl)oxy)-2-(((4-(((2-(pyrrolidin-1-yl)ethyl)carbamoyl)oxy)decanoyl)oxy)methyl)propyl (2-(hept-6-en-1-yl)non-8-en-1-yl) adipate], the “Encapsulation Efficiency (%)” value in data set [1] is given as 97.4%. In data set [2], the “Diameter (nm)” value was 53.4 nm and the PDI is recorded as 0.08. The “% Editing in Liver (0.05 mpk)” value in data set [3] is listed as 1.4%.
Taken in the same sequence, the figures for `CCCCCCCCOC(CCC(=O)OCC(COC(=O)CCCCCC(=O)OCCC(CCCCC)CCCCC)COC(=O)CCC(CCCCCC)OC(=O)NCCN1CCCC1)OCCCCCCCC` (stereo not shown) [Compound 7-15, 1-(3-((4,4-bis(octyloxy)butanoyl)oxy)-2-(((4-(((2-(pyrrolidin-1-yl)ethyl)carbamoyl)oxy)decanoyl)oxy)methyl)propyl) 7-(3-pentyloctyl) heptanedioate] were 97.9%, 58.45 nm, 0.08 and 6.8%.
For `CC/C=C\CCCCOC(CCC(=O)OCC(COC(=O)CCCCCC(=O)OCCC(CCCCC)CCCCC)COC(=O)CCC(C)OC(=O)NCCN1CCCC1)OCCCC/C=C\CC` (stereo not shown) [Compound 7-30, 1-(3-((4,4-bis(((Z)-oct-5-en-1-yl)oxy)butanoyl)oxy)-2-(((4-(((2-(pyrrolidin-1-yl)ethyl)carbamoyl)oxy)pentanoyl)oxy)methyl)propyl) 7-(3-pentyloctyl) heptanedioate] the same measures were 98.3%, 71.40 nm, 0.10 and 0.8%.
Consider `CC/C=C\CCCCOC(CCC(=O)OCC(COC(=O)CCCCCC(=O)OC(CCCCCCC)CCCCCCC)COC(=O)CCC(CCCCC)OC(=O)NCCN1CCCC1)OCCCC/C=C\CC` (stereo not shown) [Compound 7-35, 1-(3-((4,4-bis(((Z)-oct-5-en-1-yl)oxy)butanoyl)oxy)-2-(((4-(((2-(pyrrolidin-1-yl)ethyl)carbamoyl)oxy)nonanoyl)oxy)methyl)propyl) 7-(pentadecan-8-yl) heptanedioate], for which, in data set [1], the “Encapsulation Efficiency (%)” value is 96.2%. For the same molecule, in data set [2], the “Diameter (nm)” value came to 64.25 nm and the PDI was 0.12. In data set [3], the “% Editing in Liver (0.05 mpk)” value worked out at 3.1%.
For `C=CCCCCCC(CCCCCC=C)OC(=O)CCCCCC(=O)OCC(COC(=O)CCC(CCCCCC)OC(=O)NCCN1CCCC1)COC(=O)CCC(OCCCC/C=C\CC)OCCCC/C=C\CC` (stereo not shown) [Compound 7-34, 1-(3-((4,4-bis(((Z)-oct-5-en-1-yl)oxy)butanoyl)oxy)-2-(((4-(((2-(pyrrolidin-1-yl)ethyl)carbamoyl)oxy)decanoyl)oxy)methyl)propyl) 7-(pentadeca-1,14-dien-8-yl) heptanedioate] the same measures were 98.1%, 54.35 nm, 0.05 and 1.6%.
For `C=CCCCCCC(CCCCCC=C)OC(=O)CCCCCC(=O)OCC(COC(=O)CCC(CCCCC)OC(=O)NCCN1CCCC1)COC(=O)CCC(OCCCC/C=C\CC)OCCCC/C=C\CC` (stereo not shown) [Compound 7-33, 1-(3-((4,4-bis(((Z)-oct-5-en-1-yl)oxy)butanoyl)oxy)-2-(((4-(((2-(pyrrolidin-1-yl)ethyl)carbamoyl)oxy)nonanoyl)oxy)methyl)propyl) 7-(pentadeca-1,14-dien-8-yl) heptanedioate] the same measures were 96.7%, 64.85 nm, 0.11 and 6.5%.
For `CC/C=C\CCCCOC(CCC(=O)OCC(COC(=O)CCCCCC(=O)OCCC(CCCCC)CCCCC)COC(=O)CCC(CCC)OC(=O)NCCN1CCCC1)OCCCC/C=C\CC` (stereo not shown) [Compound 7-25, 1-(3-((4,4-bis(((Z)-oct-5-en-1-yl)oxy)butanoyl)oxy)-2-(((4-(((2-(pyrrolidin-1-yl)ethyl)carbamoyl)oxy)heptanoyl)oxy)methyl)propyl) 7-(3-pentyloctyl) heptanedioate] the same measures were 97.8%, 78.75 nm, 0.11 and 0.9%.
In the case of `CC/C=C\CCCCOC(CCC(=O)OCC(COC(=O)CCC(CCCCC)OC(=O)NCCN1CCCC1)COC(=O)CCC(OCCCC/C=C\CC)OCCCC/C=C\CC)OCCCC/C=C\CC` (stereo not shown) [Compound 7-37, 2-(((4-(((2-(pyrrolidin-1-yl)ethyl)carbamoyl)oxy)nonanoyl)oxy)methyl)propane-1,3-diyl bis(4,4-bis(((Z)-oct-5-en-1-yl)oxy)butanoate)], the “Encapsulation Efficiency (%)” value in data set [1] is listed as 94.7%. Besides, in data set [2], the “Diameter (nm)” value is on record as 66.20 nm and the PDI is listed as 0.12. The “% Editing in Liver (0.05 mpk)” value in data set [3] amounted to 12.0%.
For `CC/C=C\CCCCOC(CCC(=O)OCC(COC(=O)CCCCCCOC(=O)C(CCCC)CCCCCC)COC(=O)CCC(CCCCCC)OC(=O)NCCCN(CC)CC)OCCCC/C=C\CC` (stereo not shown) [Compound 7-42, 3-((4,4-bis(((Z)-oct-5-en-1-yl)oxy)butanoyl)oxy)-2-(((7-((2-butyloctanoyl)oxy)heptanoyl)oxy)methyl)propyl 4-(((3-(diethylamino)propyl)carbamoyl)oxy)decanoate] the same measures were 97.2%, 74 nm, 0.13 and 7.3%.
